Test results as given in ChEMBL document CHEMBL4002608, “Discovery of new MurA inhibitors using induced-fit simulation and docking” (Bioorg Med Chem Lett, 2017).
pIC50: −log10 of the molar value. The source made the active and inactive calls. The calls are words filed in the database; no cut-off is given here.

What was measured:
[1] = Inhibition of Haemophilus influenzae MurA
[2] = tested on: Escherichia coli DH5[alpha]; test: Inhibition of Escherichia coli DH5alpha C-terminal His6-tagged MurA expressed in Escherichia coli BL21(DE3) assessed as residual activity at 100 uM using UNAG as substrate after 15 mins in presence of PEP by malachite green dye based spectrophotometric method relative to control
[3] = Inhibition of Escherichia coli MurA
[4] = Inhibition of Staphylococcus aureus MurA
[5] = Inhibition of Enterobacter cloacae MurA
[6] = Inhibition of Escherichia coli DH5alpha C-terminal His6-tagged MurA expressed in Escherichia coli BL21(DE3) using UNAG as substrate after 15 mins in presence of PEP by malachite green dye based spectrophotometric method; design: species or system Escherichia coli DH5[alpha]
Staphylococcus aureus = test: Antibacterial activity against Staphylococcus aureus ATCC 29213 after 20 to 24 hrs by broth microdilution assay; type: functional
Escherichia coli = test: Antibacterial activity against Escherichia coli ATCC 25922 after 20 to 24 hrs by broth microdilution assay; type: functional
[7] = tested on: Escherichia coli DH5[alpha]; test: (§1) Reversible inhibition of Escherichia coli DH5alpha C-terminal His6-tagged MurA expressed in Escherichia coli BL21(DE3) at 5 uM preincubated for 30 mins followed by compound dilution and subsequent substrate UNAG addition measured after 20 mins in presence of PEP by malachite green dye based spectrophotometric method
[8] = Inhibition of methicillin-resistant Staphylococcus aureus MurA
[9] = tested on: Escherichia coli DH5[alpha]; test: as §1, with “Irreversible inhibition” for “Reversible inhibition”, “at 0.8” for “at 5”

SMILES	Activity [2] [%]	further results
O=C1C(Oc2ccc(O)cc2)=C(Cl)C(=O)c2ncccc21	–	pIC50 [1]: 5.55
O=C(O)c1c([C@@H](C(=O)O)N2CCN(c3ccccn3)CC2)c2ccccc2n1Cc1ccccc1	87	–
O=[N+]([O-])/C(Br)=C/c1ccc(Br)o1	–	pIC50 [3]: 5.55; pIC50 [4]: 5.41
CC1=C(O)C(=O)[C@H]2O[C@@H]2C1=O	–	pIC50 [5]: 4.85
C=C1C(=O)OCC1O (racemic) [(+/-)-TULIPALINE B]	–	pIC50 [3]: 6.70
O=C(C1=C(O)C(=O)N(c2nnc(SCc3ccccc3)s2)[C@@H]1c1ccc(O)cc1)c1ccco1	62	–
O=C1[C@@H]2C3c4ccccc4C(C(=O)O)(c4ccccc43)[C@@H]2C(=O)N1c1cccc([N+](=O)[O-])c1	98	–
CCOc1ccc(N2C(=O)[C@@H]3C4c5ccccc5C(C(=O)O)(c5ccccc54)[C@@H]3C2=O)cc1	100	–
O=c1oc2c(Cl)cc(O)c(Cl)c2s1	–	pIC50 [3]: 6.55; pIC50 [4]: 5.96
C=C(C(=O)OC)[C@@H]1[C@@H](CCCCCCCC)OC(=O)[C@@H]1O	–	pIC50 [3]: 5.55; pIC50 [8]: 5.17
C[C@@H]1O[C@@H]1P(=O)(O)O [FOSFOMYCIN]	< 50	pIC50 [6]: 4.39; inhibition [9]: Active
CS(=O)(=O)N1CCN([C@H](C(=O)O)c2c(C(=O)O)n(Cc3ccccc3)c3ccccc23)CC1	99	–
O=C(O)[C@H]1C[C@@H](C(=O)N2CCCC2)CN(C(=O)c2[nH]nc3c2CCCC3)C1	100	–
CCOc1ccc(N2C(=O)[C@@H]3C4c5ccccc5C(C(=O)O)(c5ccccc54)[C@@H]3C2=O)c([N+](=O)[O-])c1	78	–

Continued, in another order:

Activity [2] [%]	SMILES	further results
96	CC(=O)N1CCN([C@H](C(=O)O)c2c(C(=O)O)n(Cc3ccccc3)c3ccccc23)CC1	–
< 50	O=C(c1cnn(Cc2ccccc2)c1)N1CC=C(c2c[nH]c3ncccc23)CC1	pIC50 [6]: 3.96; Activity (Staphylococcus aureus): inactive; Activity (Escherichia coli): inactive
92	CO[C@H](C(=O)N1CCc2c(cnc(C)c2CNC(=O)c2cccs2)C1)c1ccccc1	–
94	CN1CCN([C@H](C(=O)O)c2c(C(=O)O)n(Cc3ccccc3)c3ccccc23)CC1	–
86	Cc1ccccc1-c1cccc(CN[C@H]2CCCN(c3ncccn3)C2)c1	–
99	O=C(Nc1cc(CCc2ccccc2)ccn1)[C@H]1CCCN(c2ncccn2)C1	–
85	CS(=O)(=O)N1CCc2cc(C(=O)N3CCC(c4cc5ccccc5[nH]4)CC3)ccc21	–
99	Cc1ccccc1-n1cc(CN[C@H]2CCCN(c3ncccn3)C2)cn1	–
98	C[C@@H](Oc1ccc2ccccc2c1)C(=O)NCc1nc(-c2ncccn2)no1	–
91	O=C(O)COc1ccccc1[C@@H]1C2=C(CCCC2=O)Nc2nc(SCc3ccccn3)nn21	–
91	O=C(O)c1nn(CCCc2ccccc2)c2c1CN(C(=O)c1ccc[nH]1)CC2	–
< 50	Cc1n[nH]c(S/C(=C/c2ccc(-c3cccc(C(=O)O)c3)o2)C(=O)O)n1	pIC50 [6]: 6.00; inhibition [7]: Active; Activity (Staphylococcus aureus): inactive; Activity (Escherichia coli): inactive
63	CCc1cc(C(=O)N2CCN[C@H](C(=O)O)C2)c(NC(=O)c2ccccc2)s1	–
82	c1ccc(CN2CC[C@@H](Nc3nncc(-c4cc5ccccc5o4)n3)C2)cc1	–
96	O=C(O)c1nn(CCCc2ccccc2)c2c1CN(C(=O)c1cnc[nH]1)CC2	–
98	Cc1cc(C)nc(-c2cccc3c2O[C@@H](CNC(=O)c2ccc(N4CCN(C)CC4)cc2)C3)n1	–
100	Cc1c(C(=O)N2CCC[C@@H](C(N)=O)C2)sc2ncnc(NCCCc3ccccc3)c12	–
86	O=C(CCN1CCCO1)N1CCc2[nH]nc(-c3cccc4ccccc34)c2C1	–
100	O=C(O)[C@H]1CC2(CCN(C(=O)c3cc4ccccc4[nH]3)CC2)CN1C(=O)C1CC1	–
66	Cc1ncc2c(c1CNC(=O)c1cc3ccccc3[nH]1)CCN(C(=O)C1=CCCC1)C2	–
< 50	O=C(O)c1ccc(-c2nccn2Cc2nc3ccccc3c(=O)[nH]2)cc1	pIC50 [6]: 4.09; Activity (Staphylococcus aureus): inactive; Activity (Escherichia coli): inactive
85	O=C(O)C[C@H]1c2ccccc2CCN1C(=O)c1cc(=O)[nH]c2ccccc12	–
